Structures can show the parent of a compound that is named as a salt.
Test system: human adipose-derived stem cells (hADSC)
Experiment: Osteogenic differentiation and assessment of mineralisation in vitro (Alizarin Red S)
Assay type: cell-based
Conditions: 300 nM; 24 days of cell culture; relative to vehicle control (0.2% DMSO)
Protocol: For in vitro osteogenesis, human adipose-derived stem cells (hADSC) (Invitrogen, UK; catalogue number R7788-115) were seeded into 12-well plates at a density of 5000 cells/cm^2 and were cultured in a basal media of phenol red-free Dulbecco's Modified Eagles Medium (DMEM; Sigma-Aldrich, UK; catalogue number D1145) supplemented with 5% fetal bovine serum (FBS, Gibco, UK; catalogue number 10270) and 2 mM GlutaMax® (Gibco; catalogue number 35050). […] The formation of mineralized bone nodules was assessed during the time-course using Alizarin Red S staining. […] The amount of mineralisation was quantified through the extraction of the Alizarin Red S stain from bone nodules using a cetylpyridinium chloride extraction method, previously described (Gregory et al., Analytical Biochemistry, 2004, 329: 77-84; Hwang et al., Stem Cells and Development 17: 963-970, 2008). […] Following incubation, 200 μl aliquots were transferred to 96-well format and the absorbance at 550 nm was determined using a microplate spectrophotometer (SpectraMax Plus, Molecular Devices, USA). Data were expressed as mean absorbance at 550 nm±Standard error of mean (SEM). […] Data are shown as mean absorbance at 550 nm and analysed using one-way ANOVA followed by Tukey's multiple comparison post hoc test: n=9; ***, P<0.001. […]

COCCCNCCCc1ccc(-c2cnc(N)c(C(=O)Nc3cccnc3)n2)cc1 [Example 1, 3-Amino-6-(4-{3-[(3-methoxypropyl)amino]propyl}phenyl)-N-pyridin-3-ylpyrazine-2-carboxamide tri-hydrochloride]
Alizarin red S staining of mineralised bone nodules: significantly induced progenitor cell commitment and osteoblast differentiation
